Source: PubChem BioAssay AID248 (DTP/NCI, 2004)
Several values for one entry are separate records, joined by “and”; a condition that tells them apart may be missing. Equal values may be shown once. Inconclusive results and toxic doses are left out.

Tested on: L1210 leukemia ip in BDF1 mice, survival T/C
Experiment: NCI In Vivo Anticancer Drug Screen. Data for tumor model L1210 Leukemia (intraperitoneal) in B6D2F1 (BDF1) mice
Conditions: endpoint: mean survival time, higher = longer survival
Method in brief: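 Transplanted-tumor mice were given test agent; controls received vehicle only. Survival readings from the two groups were divided (treated over control).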

[1] = dose: 100.0 mg/kg/injection, schedule: Q01DX001 (ip), vehicle: saline
[2] = dose: 200.0 mg/kg/injection, schedule: Q01DX001 (ip), vehicle: saline
[3] = dose: 400.0 mg/kg/injection, schedule: Q01DX001 (ip), vehicle: saline
[4] = dose: 100.0 mg/kg/injection, schedule: Q01DX009 (ip), vehicle: saline with Tween-80
[5] = dose: 100.0 mg/kg/injection, schedule: Q04DX002 (ip), vehicle: Klucel (hydroxypropylcellulose) (HPC)
[6] = dose: 200.0 mg/kg/injection, schedule: Q04DX002 (ip), vehicle: Klucel (hydroxypropylcellulose) (HPC)
[7] = dose: 400.0 mg/kg/injection, schedule: Q04DX002 (ip), vehicle: Klucel (hydroxypropylcellulose) (HPC)
[8] = dose: 100.0 mg/kg/injection, schedule: Q01DX001 (ip), vehicle: Klucel (hydroxypropylcellulose) (HPC)
[9] = dose: 100.0 mg/kg/injection, schedule: Q01DX009 (ip), vehicle: Klucel (hydroxypropylcellulose) (HPC)
[10] = dose: 100.0 mg/kg/injection, schedule: Q04DX003 (ip), vehicle: Klucel (hydroxypropylcellulose) (HPC)
[11] = dose: 200.0 mg/kg/injection, schedule: Q01DX001 (ip), vehicle: Klucel (hydroxypropylcellulose) (HPC)
[12] = dose: 200.0 mg/kg/injection, schedule: Q01DX009 (ip), vehicle: Klucel (hydroxypropylcellulose) (HPC)
[13] = dose: 200.0 mg/kg/injection, schedule: Q04DX003 (ip), vehicle: Klucel (hydroxypropylcellulose) (HPC)
[14] = dose: 400.0 mg/kg/injection, schedule: Q01DX001 (ip), vehicle: Klucel (hydroxypropylcellulose) (HPC)
[15] = dose: 400.0 mg/kg/injection, schedule: Q01DX009 (ip), vehicle: Klucel (hydroxypropylcellulose) (HPC)
[16] = dose: 400.0 mg/kg/injection, schedule: Q04DX003 (ip), vehicle: Klucel (hydroxypropylcellulose) (HPC)

O=C(CCl)Nc1cccc(S(=O)(=O)F)c1
T/C (dose: 12.5 mg/kg/injection, schedule: Q01DX009 (ip), vehicle: carboxymethylcellulose (CMC)): 93 % of control | T/C (dose: 25.0 mg/kg/injection, schedule: Q01DX009 (ip), vehicle: carboxymethylcellulose (CMC)): 88 % of control | T/C (dose: 50.0 mg/kg/injection, schedule: Q01DX009 (ip), vehicle: carboxymethylcellulose (CMC)): 87 % of control | T/C (dose: 100.0 mg/kg/injection, schedule: Q04DX003 (ip), vehicle: carboxymethylcellulose (CMC)): 103 % of control

COc1ccc(NC(=O)OCCN(CCOC(=O)Nc2ccc(OC)cc2)Cc2ccccc2)cc1
T/C [1]: 94 % of control | T/C [2]: 96 % of control | T/C [3]: 100 % of control

ClCc1ccc(CCl)c(Cl)c1Cl
T/C (dose: 25.0 mg/kg/injection, schedule: Q01DX009 (ip), vehicle: saline with Tween-80): 105 % of control | T/C (dose: 50.0 mg/kg/injection, schedule: Q01DX009 (ip), vehicle: saline with Tween-80): 97 % of control | T/C [4]: 93 % of control

O=C(Nc1ccc(CCO)cc1)Nc1ccccc1C(F)(F)F
T/C [4]: 97 % of control | T/C (dose: 200.0 mg/kg/injection, schedule: Q01DX009 (ip), vehicle: saline with Tween-80): 90 % of control | T/C (dose: 400.0 mg/kg/injection, schedule: Q01DX009 (ip), vehicle: saline with Tween-80): 92 % of control

Cc1ccc(CNC(=O)Cc2ccccc2)cc1C
T/C (dose: 100.0 mg/kg/injection, schedule: Q04DX002 (ip), vehicle: saline with Tween-80): 100 % of control | T/C (dose: 200.0 mg/kg/injection, schedule: Q04DX002 (ip), vehicle: saline with Tween-80): 100 % of control | T/C (dose: 400.0 mg/kg/injection, schedule: Q04DX002 (ip), vehicle: saline with Tween-80): 110 % of control

C/C(=N\N=C(N)N)c1ccccc1
T/C (dose: 15.0 mg/kg/injection, schedule: Q01DX Z (oral), vehicle: carboxymethylcellulose (CMC)): 102 % of control | T/C (dose: 30.0 mg/kg/injection, schedule: Q01DX Z (oral), vehicle: carboxymethylcellulose (CMC)): 97 % of control

CC(=O)CC(=O)N(C)c1ccccc1
T/C (dose: 75.0 mg/kg/injection, schedule: Q01DX001 (ip), vehicle: carboxymethylcellulose (CMC)): 104 % of control | T/C (dose: 150.0 mg/kg/injection, schedule: Q01DX001 (ip), vehicle: carboxymethylcellulose (CMC)): 105 % of control

CN(C)OC(=O)Nc1cccc([N+](=O)[O-])c1
T/C (dose: 100.0 mg/kg/injection, schedule: Q04DX002 (ip), vehicle: other): 87 % of control | T/C (dose: 200.0 mg/kg/injection, schedule: Q04DX002 (ip), vehicle: other): 102 % of control | T/C (dose: 400.0 mg/kg/injection, schedule: Q04DX002 (ip), vehicle: other): 117 % of control

O=c1[nH]cc(B(O)O)c(=O)[nH]1
T/C [1]: 94 % of control | T/C [2]: 98 % of control | T/C [3]: 98 % of control

CCCCCC(Oc1ccc(Cl)cc1C)C(=O)OCC (configuration not stated)
T/C [5]: 90 % of control | T/C [6]: 87 % of control | T/C [7]: 107 % of control

CC(C)c1cccc(C(C)C)c1OC(=O)Nc1ccccc1
T/C [8]: 101 % of control | T/C [9]: 97 % of control | T/C [5]: 95 % of control and 102 % of control | T/C [10]: 116 % of control | T/C [11]: 88 % of control | T/C [12]: 98 % of control and 87 % of control | T/C [6]: 97 % of control and 108 % of control | T/C [13]: 100 % of control | T/C [14]: 87 % of control | T/C [15]: 103 % of control and 113 % of control | T/C [7]: 102 % of control and 90 % of control | T/C [16]: 108 % of control

Cc1oc2ccc(O)c(N=Nc3ccc(Cl)cc3)c2c1C
T/C [10]: 100 % of control | T/C [13]: 90 % of control | T/C [16]: 95 % of control

CC(=O)O[C@]1(C(C)=O)CC[C@H]2[C@@H]3CCC4=CC(=O)[C@H](C)C[C@]4(C)[C@@]3(F)[C@@H](O)C[C@@]21C
T/C (dose: 25.0 mg/kg/injection, schedule: Q01DX015 (sc), vehicle: steriod suspending solution): 100 % of control | T/C (dose: 50.0 mg/kg/injection, schedule: Q01DX015 (sc), vehicle: steriod suspending solution): 104 % of control | T/C (dose: 100.0 mg/kg/injection, schedule: Q01DX015 (sc), vehicle: steriod suspending solution): 100 % of control | T/C (dose: 200.0 mg/kg/injection, schedule: Q01DX015 (sc), vehicle: steriod suspending solution): 104 % of control and 115 % of control | T/C (dose: 400.0 mg/kg/injection, schedule: Q01DX015 (sc), vehicle: steriod suspending solution): 109 % of control | T/C (dose: 800.0 mg/kg/injection, schedule: Q01DX015 (sc), vehicle: steriod suspending solution): 110 % of control

CC12CCC(C(=N/O)/C1=N\O)C2(C)C (configuration not stated)
T/C (dose: 20.0 mg/kg/injection, schedule: Q04DX003 (ip), vehicle: Klucel (hydroxypropylcellulose) (HPC)): 106 % of control | T/C (dose: 25.0 mg/kg/injection, schedule: Q01DX009 (ip), vehicle: Klucel (hydroxypropylcellulose) (HPC)): 107 % of control | T/C (dose: 40.0 mg/kg/injection, schedule: Q04DX003 (ip), vehicle: Klucel (hydroxypropylcellulose) (HPC)): 103 % of control | T/C (dose: 50.0 mg/kg/injection, schedule: Q01DX009 (ip), vehicle: Klucel (hydroxypropylcellulose) (HPC)): 107 % of control | T/C (dose: 80.0 mg/kg/injection, schedule: Q04DX003 (ip), vehicle: Klucel (hydroxypropylcellulose) (HPC)): 105 % of control | T/C [10]: 96 % of control

CC[Si](CC)(c1ccccc1)N1CC1
T/C (dose: 25.0 mg/kg/injection, schedule: Q01DX001 (ip), vehicle: carboxymethylcellulose (CMC)): 97 % of control | T/C (dose: 50.0 mg/kg/injection, schedule: Q01DX001 (ip), vehicle: carboxymethylcellulose (CMC)): 101 % of control

C=CC/C=C/C
T/C [8]: 93 % of control | T/C [11]: 109 % of control | T/C [14]: 100 % of control

O=C(COc1ccc(Cl)c(Cl)c1)Nc1ccc[n+](Cc2ccc([N+](=O)[O-])cc2)c1
T/C (dose: 100.0 mg/kg/injection, schedule: Q04DX003 (ip), vehicle: saline): 95 % of control | T/C (dose: 200.0 mg/kg/injection, schedule: Q04DX003 (ip), vehicle: saline): 95 % of control | T/C (dose: 400.0 mg/kg/injection, schedule: Q04DX003 (ip), vehicle: saline): 104 % of control

O=C(Nc1ccc(C2=NCCN2)cc1)c1cccc(C(=O)Nc2ccc(C3=NCCN3)cc2)c1[N+](=O)[O-]
T/C (dose: 1.88 mg/kg/injection, schedule: Q01DX Z (ip), vehicle: saline): 100 % of control | T/C (dose: 3.75 mg/kg/injection, schedule: Q01DX Z (ip), vehicle: saline): 100 % of control | T/C (dose: 7.5 mg/kg/injection, schedule: Q01DX Z (ip), vehicle: saline): 100 % of control | T/C (dose: 15.0 mg/kg/injection, schedule: Q01DX Z (ip), vehicle: saline): 105 % of control | T/C (dose: 30.0 mg/kg/injection, schedule: Q01DX Z (ip), vehicle: carboxymethylcellulose (CMC)): 198 % of control | T/C (dose: 30.0 mg/kg/injection, schedule: Q01DX Z (oral), vehicle: saline): 103 % of control | T/C (dose: 60.0 mg/kg/injection, schedule: Q01DX Z (ip), vehicle: carboxymethylcellulose (CMC)): 117 % of control | T/C (dose: 60.0 mg/kg/injection, schedule: Q01DX Z (oral), vehicle: saline): 105 % of control | T/C (dose: 120.0 mg/kg/injection, schedule: Q01DX Z (oral), vehicle: saline): 107 % of control | T/C (dose: 240.0 mg/kg/injection, schedule: Q01DX Z (oral), vehicle: saline): 102 % of control

CCCCCCCCCCCCP(=O)(O)O
T/C (dose: 75.0 mg/kg/injection, schedule: Q01DX001 (ip), vehicle: other): 94 % of control | T/C (dose: 150.0 mg/kg/injection, schedule: Q01DX001 (ip), vehicle: other): 97 % of control

NN=C1c2ccccc2C(F)(F)c2ccccc21
T/C (dose: 50.0 mg/kg/injection, schedule: Q01DX001 (ip), vehicle: Klucel (hydroxypropylcellulose) (HPC)): 95 % of control | T/C [8]: 95 % of control

O=C(/C=C/c1ccccc1)Nc1ccccc1C(F)(F)F
T/C [9]: 98 % of control | T/C [12]: 104 % of control | T/C [15]: 101 % of control

CC(C)=N/N=C(/C(=O)c1ccccc1)c1ccccc1
T/C [1]: 109 % of control | T/C [2]: 109 % of control | T/C [3]: 97 % of control

O=C(OC1OCC(OCc2ccccc2)C(OCc2ccccc2)C1OCc1ccccc1)c1ccccc1 (configuration not stated)
T/C (dose: 100.0 mg/kg/injection, schedule: Q04DX003 (ip), vehicle: saline with Tween-80): 94 % of control | T/C (dose: 200.0 mg/kg/injection, schedule: Q04DX003 (ip), vehicle: saline with Tween-80): 94 % of control | T/C (dose: 400.0 mg/kg/injection, schedule: Q04DX003 (ip), vehicle: saline with Tween-80): 91 % of control
